Assay results as given in ChEMBL document CHEMBL1201862, “PubChem BioAssay data set” (2004).
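These data come from cells grown in 96-well plates and exposed to compound for 48 hours at five concentrations. Abbreviation: GI50, concentration required for 50% inhibition of growth.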 Active and inactive are the calls of the source. Rule as the data show it: active = GI50 up to about 1.1 µM and inactive = higher.

Key:
Test in all cases: NCI tumour cell line growth inhibition, 48 h
786-0 = test system: 786-0
HCT-15 = test system: HCT-15
K562 = test system: K562
LOX IMVI = test system: LOX IMVI
MDA-MB-231 = test system: MDA-MB-231
MOLT-4 = test system: MOLT-4
Malme-3M = test system: Malme-3M
NCI-H226 = test system: NCI-H226
NCI/ADR-RES = test system: NCI/ADR-RES
OVCAR-3 = test system: OVCAR-3
OVCAR-4 = test system: OVCAR-4
OVCAR-5 = test system: OVCAR-5
OVCAR-8 = test system: OVCAR-8
RPMI-8226 = test system: RPMI-8226
RXF 393 = test system: RXF 393
SF-295 = test system: SF-295
SK-MEL-28 = test system: SK-MEL-28
T47D = test system: T47D
U-251 = test system: U-251
UACC-257 = test system: UACC-257

Row | Structure (SMILES) | GI50 (786-0) | GI50 (HCT-15) [µM] | GI50 (K562) | GI50 (LOX IMVI) | GI50 (MDA-MB-231) | GI50 (MOLT-4) | GI50 (Malme-3M) | GI50 (NCI-H226) | GI50 (NCI/ADR-RES) | GI50 (OVCAR-3) | GI50 (OVCAR-4) | GI50 (OVCAR-5) | GI50 (OVCAR-8) | GI50 (RPMI-8226) | GI50 (RXF 393) | GI50 (SF-295) | GI50 (SK-MEL-28) | GI50 (T47D) | GI50 (U-251) | GI50 (UACC-257)
1 | O=C(O)CNC(=O)C1NC(C(F)(F)F)(C(F)(F)F)OC1(C(F)(F)F)C(F)(F)F (stereo not given) | > 100 µM (inactive) | > 100 | > 100 µM (inactive) | > 100 µM (inactive) | > 100 µM (inactive) | > 100 µM (inactive) | > 100 µM (inactive) | > 100 µM (inactive) | > 100 µM (inactive) | > 100 µM (inactive) | > 100 µM (inactive) | > 100 µM (inactive) | > 100 µM (inactive) | > 100 µM (inactive) | > 100 µM (inactive) | 92.3 µM (inactive) | > 100 µM (inactive) | > 100 µM (inactive) | > 100 µM (inactive) | > 100 µM (inactive)
2 | CCOC(=O)C1CN(C2CC2)CCC1=O (stereo not given) | > 100 µM (inactive) | > 100 | > 100 µM (inactive) | > 100 µM (inactive) | > 100 µM (inactive) | > 100 µM (inactive) | > 100 µM (inactive) | > 100 µM (inactive) | > 100 µM (inactive) | > 100 µM (inactive) | > 100 µM (inactive) | > 100 µM (inactive) | > 100 µM (inactive) | > 100 µM (inactive) | > 100 µM (inactive) | > 100 µM (inactive) | > 100 µM (inactive) | > 100 µM (inactive) | > 100 µM (inactive) | > 100 µM (inactive)
3 | CCOC(=O)c1cn(CC)c2ccc3c(c2c1=O)S(=O)(=O)C=C3 | > 100 µM (inactive) | > 100 | > 100 µM (inactive) | > 100 µM (inactive) | > 100 µM (inactive) | > 100 µM (inactive) | > 100 µM (inactive) | 63.7 µM (inactive) | > 100 µM (inactive) | > 100 µM (inactive) | > 100 µM (inactive) | > 100 µM (inactive) | > 100 µM (inactive) | > 100 µM (inactive) | 47 µM (inactive) | > 100 µM (inactive) | > 100 µM (inactive) | > 100 µM (inactive) | > 100 µM (inactive) | > 100 µM (inactive)
4 | O=C1C(=Cc2ccccc2[N+](=O)[O-])N=C(c2ccccc2)N1n1c(-c2ccccc2)nc2ccccc2c1=O | 38 µM (inactive) | 24.5 | 31.8 µM (inactive) | 29.4 µM (inactive) | 27.6 µM (inactive) | 27.8 µM (inactive) | 25.1 µM (inactive) | 32.5 µM (inactive) | 23.2 µM (inactive) | 29 µM (inactive) | 33.4 µM (inactive) | 71.3 µM (inactive) | 24.7 µM (inactive) | 20.5 µM (inactive) | 16.1 µM (inactive) | 30.9 µM (inactive) | 30.9 µM (inactive) | 21 µM (inactive) | 30 µM (inactive) | 24.8 µM (inactive)
5 | CCC1c2[nH]c3ccccc3c2C[C@H]2C(=O)N3CCC[C@H]3C(=O)N12 (stereo not given in full) | > 100 µM (inactive) | 53.7 | > 100 µM (inactive) | > 100 µM (inactive) | > 100 µM (inactive) | 97.7 µM (inactive) | 42.5 µM (inactive) | > 100 µM (inactive) | > 100 µM (inactive) | > 100 µM (inactive) | > 100 µM (inactive) | > 100 µM (inactive) | > 100 µM (inactive) | 50.9 µM (inactive) | > 100 µM (inactive) | > 100 µM (inactive) | > 100 µM (inactive) | 67.8 µM (inactive) | 92.5 µM (inactive) | 48.6 µM (inactive)
6 | COC(=O)C1=C(O)CCCC(CCC(C)=O)=C1 | 26.9 µM (inactive) | 39.3 | 31.3 µM (inactive) | 38.2 µM (inactive) | 73.8 µM (inactive) | 36.5 µM (inactive) | 41.3 µM (inactive) | > 100 µM (inactive) | > 100 µM (inactive) | 48.8 µM (inactive) | 46.9 µM (inactive) | > 100 µM (inactive) | 56.5 µM (inactive) | 29.4 µM (inactive) | 33.4 µM (inactive) | > 100 µM (inactive) | > 100 µM (inactive) | 35.6 µM (inactive) | 43.2 µM (inactive) | 98.4 µM (inactive)
7 | O=[N+]([O-])c1cc(Cl)cc2cc(Br)cnc12 | 21.4 µM (inactive) | > 31.6 | > 31.6 µM (inactive) | > 31.6 µM (inactive) | 21.1 µM (inactive) | > 31.6 µM (inactive) | > 31.6 µM (inactive) | 29.6 µM (inactive) | > 31.6 µM (inactive) | > 31.6 µM (inactive) | > 31.6 µM (inactive) | > 31.6 µM (inactive) | 24.1 µM (inactive) | > 31.6 µM (inactive) | > 31.6 µM (inactive) | 21.9 µM (inactive) | > 31.6 µM (inactive) | > 31.6 µM (inactive) | 20.1 µM (inactive) | 31.1 µM (inactive)
8 | CC(C)(Oc1ccc(Cl)cc1)C(=O)N(C(=O)N1CCC(c2ccccc2)CC1)c1ccccc1 | > 100 µM (inactive) | 9.89 | 4.2 µM (inactive) | 22.9 µM (inactive) | > 100 µM (inactive) | 7.05 µM (inactive) | 25.4 µM (inactive) | > 61 µM (inactive) | > 29.6 µM (inactive) | > 73.5 µM (inactive) | > 100 µM (inactive) | > 100 µM (inactive) | 8.47 µM (inactive) | 2.99 µM (inactive) | 13.6 µM (inactive) | 23.8 µM (inactive) | > 100 µM (inactive) | 7 µM (inactive) | > 25.2 µM (inactive) | 11 µM (inactive)
9 | NCC1Nc2ccccc2[C@@H](O)C1O (stereo not given in full) | > 100 µM (inactive) | > 100 | > 100 µM (inactive) | > 100 µM (inactive) | > 100 µM (inactive) | > 100 µM (inactive) | > 100 µM (inactive) | > 100 µM (inactive) | > 100 µM (inactive) | > 100 µM (inactive) | > 100 µM (inactive) | > 100 µM (inactive) | > 100 µM (inactive) | > 100 µM (inactive) | > 100 µM (inactive) | > 100 µM (inactive) | > 100 µM (inactive) | > 100 µM (inactive) | > 100 µM (inactive) | > 100 µM (inactive)
10 | CCOC(=O)c1[nH]c(Br)c(-c2ccc(Br)cc2)c1Br | 0.445 µM (active) | 0.516 | 0.851 µM (active) | 0.446 µM (active) | 1.2 µM (inactive) | 0.367 µM (active) | 0.38 µM (active) | 1.31 µM (inactive) | 0.201 µM (active) | 0.237 µM (active) | 1.3 µM (inactive) | 2.5 µM (inactive) | 0.527 µM (active) | 6.73 µM (inactive) | 1.23 µM (inactive) | 0.263 µM (active) | 0.366 µM (active) | 2.39 µM (inactive) | 0.454 µM (active) | 0.671 µM (active)
11 | C=C1CC/C=C(\C)C(=O)C[C@@H]2[C@@H]1CC2(C)C [BUDDLEDIN C] | 0.975 µM (active) | 0.689 | 1.82 µM (inactive) | 1.17 µM (inactive) | 7.53 µM (inactive) | 0.184 µM (active) | 2.48 µM (inactive) | 14.8 µM (inactive) | 4.53 µM (inactive) | 6.34 µM (inactive) | 0.743 µM (active) | 9.46 µM (inactive) | 4.7 µM (inactive) | 2.02 µM (inactive) | 1.85 µM (inactive) | 15.5 µM (inactive) | 2.75 µM (inactive) | 2.31 µM (inactive) | 6.79 µM (inactive) | 4.66 µM (inactive)
